Experimental data published in US20080299566A1, “Methylation of Gene Promoters as a Predictor of Effectiveness of Therapy” (priority 2006, published 2008).

Assays:
[1] = tested on: EAC cell line OE33; experiment: 5AzaC treatment of EAC cell line OE33; qMSP and real-time RT-PCR for Reprimo; assay type: cell-based; settings: 1 μl of 5 mM 5AzaC per ml of cells every 24 hours for 6 days, harvested day 0, 2, 4, 6
Procedure: (§1) DNA methylation of Reprimo was determined by qMSP using the ABI 7700 Taqman system (Eads C. A. et al., (2001)). MSP distinguishes methylated alleles of a given gene based on DNA sequence alterations after bisulfite treatment of DNA. Bisulfite treatment converts unmethylated but not methylated cytosines to uracils. Subsequent PCR using primers and probe specific to the corresponding methylated DNA sequence is then performed. (Eads C. A. et al., (2001)).
(§2) The normalized MSP value (NMV) was calculated by dividing the ratio of the qMSP value for Reprimo to β-actin for each sample by the ratio of the qMSP value for Reprimo to, β-actin for Universal Methylated DNA (See Sato F. et al., Cancer Res., 62:6820-6822 (2002) and Shibata, D. M., et al., Cancer Res., 62:5637-5640 (2002)). Qualitative MSP status was determined by analyzing the normalized MSP value. A normalized MSP value of 0.05 was assigned as the cutoff point for classifying methylation status as qualitatively positive (≧0.05) or negative (<0.05). This cutoff point had been previously determined by ROC curve analysis (See Shibata, D. M., et al., (2002)).
(§3) This treatment protocol has been published previously (Shibata, D. M., et al., Cancer Res., 62:5637-5640 (2002)). […]

[2] = tested on: ESCC cell line KYSE 110; experiment: 5AzaC treatment of ESCC cell line KYSE 110; qMSP and real-time RT-PCR for Reprimo; assay type: cell-based; settings: 1 μl of 5 mM 5AzaC per ml of cells every 24 hours for 6 days, harvested day 0, 2, 4, 6
Procedure: as §1, §2, §3

Nc1ncn([C@H]2C[C@H](O)[C@@H](CO)O2)c(=O)n1 [5AzaC, 5-Aza-2′-Deoxycytidine]
Reprimo mRNA expression [1]: increased Reprimo mRNA expression | Reprimo methylation (qMSP) [1]: reduction in Reprimo methylation | Reprimo mRNA expression [2]: increased Reprimo mRNA expression | Reprimo methylation (qMSP) [2]: reduction in Reprimo methylation
